Columns and labels:
[1] = system: model mice with Type II diabetes; assay: Measurement of lipids in the liver of model mice with Type II diabetes; assay type: in vivo, Male KK-Ay mice; conditions: KK-Ay mice
Protocol: (§1) (a) It was examined whether D,L pipecolic acid has an effect on blood and liver lipids of model mice with Type II diabetes.
(§2) (b) Male KK-Ay mice of 6 weeks old were used to start the experiment.
(c) 16 KK-Ay mice were divided into 2 groups based on their body weights. Feeds wherein 0 or 1.6% D,L pipecolic acid was added were provided to each group for 5 weeks. At the fifth week, they were fasted, and their blood was collected and their livers were extracted to measure their fasting blood triglyceride, fasting blood total cholesterol, fasting free fatty acids in the blood, total lipids in the liver, liver triglyceride and liver total cholesterol.
(§3) (b) Preparation of feeds: D,L pipecolic acid (produced by Aldrich) was mixed in small portions with a commercial feed (CRF-1, produced by Oriental Yeast Co., Ltd.) and further mixed together for 5 minutes by using a universal mixer (produced by Dalton Corporation).
(§4) (c) Farming mice: 16 (2 experimental sections×8) male KK-Ay mice of 4 weeks old were purchased from Clea Japan, Inc. and each was separately farmed in an animal room in a light-dark cycle of 12 hours (7:00 to 19:00) at room temperature of 25° C. After naturalizing two weeks, they were divided into 2 groups based on their body weights, and the above feeds were provided to them for 5 weeks. Every Mondays, Wednesdays and Fridays during the period, their body weights and amounts of food ingested were measured, and the feeds were added. After 5 weeks passed, they were fasted for 17 hours, their blood was collected and their livers were extracted. The fasting blood triglyceride, fasting blood total cholesterol, fasting free fatty acids in the blood, total lipids in the liver, liver triglyceride and liver total cholesterol were measured by using those samples.
(e) Measurement of lipids in the liver: About 0.5 g of a liver sample is homogenized in 10 mL of chloroform/methanol (2:1) solution, and lipids are extracted overnight. […] 5 mL thereof is concentrated by drying with a centrifugal evaporator, and its weight measured becomes total lipids in the liver. […]

[2] = system: model mice with Type II diabetes; assay: Autopsy: weights of epididymal fats and perinephric fats in model mice with Type II diabetes; assay type: in vivo, Male KK-Ay mice; conditions: KK-Ay mice, feed adding 0.8%, autopsy at tenth week
Protocol: (§5) (c) 24 KK-Ay mice were divided into 3 groups based on their body weights, and the blood glucose levels and transitions of the blood insulin concentrations when injected glucose. Feeds adding 0, 0.4 or 0.8% D,L pipecolic acid were provided to each group for 10 weeks. At the second and eighth weeks after starting the test, their blood glucose levels and blood insulin concentrations after oral injection of glucose were measured. At the ninth week, the insulin tolerance test was conducted, and at the tenth week, autopsy was conducted to the samples to measure weights of epididymal fats and perinephric fats.
(§6) (c) Farming mice: 24 male KK-Ay mice of 5 weeks old were purchased from Clea Japan, Inc. and each was separately farmed in an animal room in a light-dark cycle of 12 hours (7:00 to 19:00) at room temperature of 25° C. Then, KK-Ay mice were divided into 3 groups based on their blood glucose levels and blood insulin concentrations measured when giving glucose. […] At the second and eighth weeks, the oral glucose tolerance test was conducted, and their blood glucoses and blood insulin concentrations after oral injection of glucose were measured. […] Then, at the tenth week, autopsy was conducted to the samples, and weights of epididymal fats and perinephric fats were measured to see effects of pipecolic acid on weights of visceral fats. […]

[3] = system: model mice with Type II diabetes; assay: Insulin tolerance test in model mice with Type II diabetes; assay type: in vivo, Male KK-Ay mice; conditions: KK-Ay mice, feed adding 0.8%, ninth week, insulin 0.5 U/kg subcutaneous, compared with additive-free group
Protocol: as §5, §6

[4] = system: model mice with Type II diabetes; assay: Measurement of lipids in the blood of model mice with Type II diabetes; assay type: in vivo, Male KK-Ay mice; conditions: KK-Ay mice, feed adding 1.6% for 5 weeks, fasting, average value
Protocol: as §1, §2
(c) 16 KK-Ay mice were divided into 2 groups based on their body weights. Feeds wherein 0 or 1.6% D,L pipecolic acid was added were provided to each group for 5 weeks. At the fifth week, they were fasted, and their blood was collected and their livers were extracted to measure their fasting blood triglyceride, fasting blood total cholesterol, fasting free fatty acids in the blood, total lipids in the liver, liver triglyceride and liver total cholesterol. […]
as §4, with “After naturalizing two weeks, they were divided into 2 groups based on their body weights, and the above feeds were provided to them for 5 weeks.” left out, “After 5 weeks passed, they were fasted for 17 hours, their blood was collected and their livers were extracted.” left out, “samples. […]” for “samples.”

obese model rats = assay: Oral glucose tolerance test in obese model rats (high-fat diets) provided with pipecolic acid for 4 weeks; assay type: in vivo, Male SD rats; conditions: 0.2 or 0.4% added to high-fat diets for 4 weeks
Description: (a) It is reported that obese model rats produced by giving high-fat diets express insulin resistance and develop hyperinsulinemia. It was examined whether the increase of the blood glucose and blood insulin concentration after oral injection of glucose to these obese model rats could be inhibited by providing them with D,L pipecolic acid for 4 weeks.
(b) Male SD rats of 6 weeks old were used to start the experiment.
(c) 48 rats were divided into 2 groups so that their fasting blood glucoses and body weights became the same. Normal diets or high-fat diets were given to them for 3 weeks (model production period). […] 0, 15, 30, 60, and 120 minutes after the administration, their blood glucose levels and blood insulin concentrations were measured. […]
(d) Farming rats: 48 (6 experimental sections×8) male SD rats of 5 weeks old were purchased from Charles River Laboratories Japan, Inc. and each was separately farmed in an animal room in a light-dark cycle of 12 hours (7:00 to 19:00) at room temperature of 25° C. […] Every Mondays, Wednesdays and Fridays during all periods starting from the model production period to the end of the test period, their body weights and amounts of food ingested were measured, and the feeds were added. […]

[5] = system: model mice with Type II diabetes; assay: Oral glucose tolerance test in model mice with Type II diabetes; assay type: in vivo, Male KK-Ay mice; conditions: KK-Ay mice; for increase of blood glucose in the oral glucose tolerance test: feed adding 0.4%
Description: (a) It was examined whether D,L pipecolic acid has an effect of improving the pathology of model mice with Type II diabetes.
(b) Male KK-Ay mice, which are the model mice with Type II diabetes, were used to start the experiment.
as §5, with “fats. […]” for “fats.”
(c) Farming mice: 24 male KK-Ay mice of 5 weeks old were purchased from Clea Japan, Inc. and each was separately farmed in an animal room in a light-dark cycle of 12 hours (7:00 to 19:00) at room temperature of 25° C. Then, KK-Ay mice were divided into 3 groups based on their blood glucose levels and blood insulin concentrations measured when giving glucose. […] At the second and eighth weeks, the oral glucose tolerance test was conducted, and their blood glucoses and blood insulin concentrations after oral injection of glucose were measured. […] Then, at the tenth week, autopsy was conducted to the samples, and weights of epididymal fats and perinephric fats were measured to see effects of pipecolic acid on weights of visceral fats.
(d) Oral glucose tolerance test: Fasting was started at 20:00 of the day before the test. […] 0, 30, 60, 120, 180, and 240 minutes after the administration, their blood was collected and their blood glucose levels and blood insulin concentrations were measured. The blood glucose levels were promptly measured after the blood collection by using a biochemical auto-analyzer for animals (Fuji DriChem 5500, produced by Fuji Photo Film Co., Ltd.). […]

normal rats = assay: Oral glucose tolerance test in normal rats provided with pipecolic acid feed for 4 weeks; assay type: in vivo, Male SD rats; conditions: normal SD rats
Description: (a) It was examined whether the increase of the blood glucose after oral injection of glucose to normal rats could be inhibited by providing them with D,L pipecolic acid for 4 weeks.
(b) Male SD rats of 9 weeks old were used to start the experiment.
(c) 24 normal rats were divided into 3 groups (each group consisting of 8 rats) so that their fasting blood glucose and body weights became the same. Feeds adding 0, 0.2 or 0.4% D,L pipecolic acid were provided to each group for 4 weeks. Then, they were fasted for 17 hours, and 10% glucose solution was orally administered to them in its provided amount of 2 g/kg of body weight. At 0, 15, 30, 60, and 120 minutes after the administration, the blood glucose level and blood insulin concentration were measured.
as §3
(c) Farming rats: 24 (3 experimental sections×8) male SD rats of 7 weeks old were purchased from Charles River Laboratories Japan, Inc. and each was separately farmed in an animal room in a light-dark cycle of 12 hours (7:00 to 19:00) at room temperature of 25° C. After habituation for two weeks, they were divided into 3 groups based on their body weights and fasting blood glucoses, and then the above feeds were provided for 4 weeks. Every Mondays, Wednesdays and Fridays during the period, their body weights and amounts of food ingested were measured, and the feeds were added. 4 weeks later, the oral glucose tolerance test was conducted.
(d) Oral glucose tolerance test: Fasting was started at 17:00 of the day before the test. At 10:00 of the test day, 10% glucose solution was orally administered to the rats in its provided amount of 2 g/kg of body weight. 0, 15, 30, 60, and 120 minutes after the administration, their blood was collected and their blood glucose levels and blood insulin concentrations were measured. The blood glucose levels were promptly measured after the blood collection by using a biochemical auto-analyzer for animals (Fuji DriChem 5500, produced by Fuji Photo Film Co., Ltd.). Further, the collected blood was centrifuged with a centrifuge (himac CF15D, produced by IlitachiKoki Co., Ltd) to take out the blood plasma, and the blood insulin concentrations were measured by using an insulin measurement kit (produced by Morinaga Institute of Biochemical Science, Inc.). FIG. 1A and FIG. 1B indicate the blood glucose transitions and the area under the blood glucose concentration time curve; and FIG. 1C indicates transitions of the blood insulin concentration.

[6] = feed adding 1.6% for 5 weeks, average value
[7] = feed adding 0.4% for 4 weeks, glucose 2 g/kg oral

O=C(O)C1CCCCN1 (centres unmarked) [D,L pipecolic acid]
total lipids in the liver ([1]; feed adding 0 or 1.6% for 5 weeks): significantly correlate with the additive amount of pipecolic acid | decrease of liver total cholesterol as compared with the control group [1, 6]: about 20% | decrease of liver triglyceride as compared with the control group [1, 6]: about 20% | weights of epididymal fats [2]: decreased | weights of perinephric fats [2]: decreased | decrease of the blood glucose after administering insulin [3]: promoted | decrease of blood triglyceride as compared with the control group [4]: about 20% | decrease of free fatty acids in the blood as compared with the control group [4]: about 20% | blood insulin concentration (obese model rats; after glucose 2 g/kg oral): decreased to around the same extent as that of the normal diet groups | increase of the blood glucose after giving glucose (obese model rats; glucose 2 g/kg oral): hardly inhibited | increase of blood glucose in the oral glucose tolerance test ([5]; eighth week): no strong effect of inhibiting the increase of the blood glucose was confirmed | increase of blood glucose in the oral glucose tolerance test ([5]; second week, compared with additive-free group): inhibited | increase of the blood glucose after injection of glucose ([5]; feed adding 0.8%, until the eighth week): effect of inhibiting the increase of the blood glucose after injection of glucose was seen | increase of the blood glucose after oral injection of glucose (normal rats; feed adding 0.2% for 4 weeks, glucose 2 g/kg oral): inhibited | blood insulin concentration (normal rats; feed adding 0.2 or 0.4% for 4 weeks, any group and any time period after glucose): did not change | blood glucose of 30 and 60 minutes after the administration (normal rats; [7]): decreased | increase of the blood glucose after oral injection of glucose (normal rats; [7]): inhibited

— patent publication US20080081823A1, “PIPECOLIC ACID-CONTAINING ANTIDIABETIC COMPOSITIONS” (Ajinomoto Co., Inc., priority 2006, published 2008)
